Reference: PubChem BioAssay (NCI)
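Assay format: 96-well plates, 48-hour exposure. At the TGI there is no net growth.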

Tested on: SNB-78 CNS
Assay: DTP human tumour cell line panel, 48 h

Row | Structure (SMILES) | TGI [µM]
1 | Nc1nc2c3nc(Nc4ccccc4)sc3nc(=S)n2c2sc(Nc3ccccc3)nc12 | > 100
2 | CCN(CC)c1cccc2c1/C(=N/O)CCCC2 | > 100
